{"source": "patent US20060057671A1", "about": "(priority 2004, published 2006)", "key": {"[1]": {"assay_type": "physicochemical"}, "[2]": {"assay_type": "physicochemical", "remark": "listed apart in the source"}}, "note": "Read-outs that look alike come from different tables or passages of the source."}
{"substance": "poly-L-lysine", "values": [{"measurement": "CD minimum", "setting": "[1]; pH 7", "value": "approximately 204 nm"}, {"measurement": "CD minimum", "setting": "[1]; pH 11", "value": "approximately 216 nm"}, {"measurement": "absorbance plateau", "setting": "[2]; pH 7", "value": "approximately 0.22"}, {"measurement": "absorbance plateau", "setting": "[2]; pH 11", "value": "approximately 0.12"}]}
